Data set [1] addresses human MAGL (Homo sapiens (Human), UniProt Q99685). The data set can be described thus: MAGL reversible inhibition assay (washout). Type of data set: biochemical. The following applies: pre-washout compound concentration: 1 μM. On the procedure:
The reversible mechanism of MAGL inhibition of a test compound of Formula (I) can be determined. Flag-tagged MAGL enzyme will be immobilized on anti-Flag beads. Immobilized enzyme will be incubated+/−inhibitor at a dose that produces complete inhibition. Colorimetric substrate (4-NPA) will be added and the reaction monitored on a plate reader for 30 minutes to verify complete inhibition. Immobilized enzyme will then be washed thoroughly to remove the inhibitor, and fresh substrate will be added. The reaction will be monitored for an additional 30 minutes; returning enzymatic activity will indicate reversibility of inhibition.
MAGL enzyme was incubated for 30 minutes in the presence of 40× the IC50 concentration of inhibitor. Enzyme+inhibitor mix was then diluted 40-fold so that the final concentration of the inhibitor equaled the IC50 concentration. Substrate was added and the reaction was monitored for 30 minutes.

For data set [2], the system named is 2-AG levels in brain. The data set can be described thus: 2-AG estimation in mouse brain after single intraperitoneal administration of Compound 473. Type of data set: in vivo, male C57BL/6 mice. The following applies: IP 20 mg/kg, 0.5 h. The protocol:
(§1) This experiment was performed to determine plasma pharmacokinetics and estimate 2-AG levels in male C57BL/6 mice brain following a single intraperitoneal administration of Compound-473 (Dose: 20 mg/kg).
(§2) Study Design: A total of twelve C57BL/6 male mice were used in this study. Six animals were administered intraperitoneally with solution formulation of PSY-05-00473-002 at 20 mg/kg dose. Six animals were administered vehicle (5% NMP, 5% Solutol HS15 and 90% Normal saline) intraperitoneally at 10 mL/kg dose volume. Blood samples (approximately 60 μL) were collected under light isoflurane anesthesia from a set of six mice at 0.5 h. Plasma was harvested by centrifugation of blood and stored at −70±10° C. until analysis. After blood collection, mice were euthanized by cervical dislocation and brain samples were dissected rapidly and snapped frozen in liquid nitrogen and stored at −80. To homogenize, removed brain samples from the freezer, were divided into two equal hemispheres and weighed while still in frozen condition, and begun homogenization/extraction procedure without allowing the brain samples to thaw. […]
(§3) Analysis: For PK estimation, brain samples were homogenized in 2 volumes of PBS of brain weight. […] Plasma and brain homogenate samples were quantified by fit-for-purpose LC-MS/MS method (LLOQ: 1.02 ng/mL for plasma and 2.03 ng/ml for brain).

Data set [3] can be described thus: Pharmacokinetic study of compounds in mice (brain, oral). The class given is in vivo, male C57BL/6 mice. The conditions noted are these: 5 mg/kg. On the procedure:
Healthy male C57BL/6 mice (8-12 weeks old) weighing between 17 to 35 g were procured from Global, India. Temperature and humidity were maintained at 22±3° C. and 30-70%, respectively and illumination was controlled to give a sequence of 12 hr light and 12 hr dark cycle. Temperature and humidity were recorded by auto-controlled data logger system. All the animals were provided laboratory rodent diet. Reverse osmosis water treated with ultraviolet light was provided ad libitum.
Protocol A: Twenty-four male mice were divided into two groups as; Group 1:30 mg/kg/IP, Plasma and brain; Number of animals=12; Animal #1-12. Group 2:30 mg/kg/PO; Plasma and brain; Number of animals=12; Animal #13-24. […] All samples were processed for analysis by protein precipitation using acetonitrile and analyzed with fit-for-purpose LC/MS/MS method (LLOQ-2.02 ng/mL for plasma and 6.06 ng/g for brain). Pharmacokinetic parameters were calculated using the non-compartmental analysis tool of Phoenix WinNonlin®.
Protocol B: Thirty six mice were included into the study and divided in to three groups as Group 1 (n=12), Group 2 (n=12) and Group 3 (n=12) with n=2 mice per time-point design. […] Plasma and brain samples were quantified by fit-for-purpose LC-MS/MS method (LLOQ: 1.01 ng/mL for plasma and 2.02 ng/ml for brain). […]

Data set [4] concerns the target human recombinant FAAH (Homo sapiens (Human), UniProt O00519). The data set can be described thus: FAAH counter screen (Fatty Acid Amide Hydrolase Inhibitor Screening Assay Kit). The conditions noted are these: Method B: starting concentration of 10 μM. The class given is biochemical. On the procedure:
MAGL inhibitor compounds were also counter-screened for FAAH inhibition potency using the following assay. Assessment of FAAH inhibition was performed using Fatty Acid Amide Hydrolase Inhibitor Screening Assay Kit (Cayman Item No. 10005196) following manufacture's instruction with some modifications. The kit utilizes human recombinant FAAH and the fluorescent substrate, AMC Arachidonoyl amide (AAMCA). 5 μL of assay buffer (125 mM Tris, pH 9.0, 1 mM EDTA, i.e. ethylenediaminetetraacetic acid) was added to a 384-well black plate (Corning, 3573). Test compounds and control inhibitor JZL-195 (Cayman Chemical, 13668) were tested in 10-concentration IC50 mode with 3-fold serial dilution at a starting concentration of 100 μM and 10 μM, respectively. 300 nL or 30 nL of test compounds were delivered into a 384-well black plate (Corning, 3573) using a Labcyte Echo, followed by addition of 15 μL of FAAH enzyme (Cayman, 700302) in assay buffer. After a 5-minute pre-incubation at room temperature, 10 μL of AAMCA was added in assay buffer to start the reaction. Final concentration of FAAH enzyme is not specified and AAMCA substrate was used at the 20 μM. After these dilutions, the final concentration of the test compounds ranged from 100 μM to 5.08 nM or 10 μM down to 0.508 nM. The reaction was allowed to progress for 60 minutes, while the plate was read on an Envision plate reader at an Ex/Em of 350/460 nm with readings every minute. The data was analyzed in Microsoft Excel, using the slope between 30 and 59 minutes. The average of the no-enzyme wells (background) was subtracted from the data. The background-subtracted slope data was converted to % activity using the average of wells with enzyme and DMSO vehicle. IC50 values were calculated using GraphPad software (Sigmoidal dose response, variable slope equation).
Compounds listed in Table D2 were tested in the FAAH Counterscreen of Example 19
(In general: The purpose of a counterscreen is to sort out artefacts and off-target activity.)

Data set [5] is described as follows: Plasma and brain concentrations after single intraperitoneal administration of Compound 473. The class given is in vivo, male C57BL/6 mice. The following applies: male, C57BL/6, mouse, IP 20 mg/kg, read-out: Brain/Plasma Ratio (kp) (mean). The protocol: as §1, §2, §3

Chain of human MAGL (Q99685 whole entry): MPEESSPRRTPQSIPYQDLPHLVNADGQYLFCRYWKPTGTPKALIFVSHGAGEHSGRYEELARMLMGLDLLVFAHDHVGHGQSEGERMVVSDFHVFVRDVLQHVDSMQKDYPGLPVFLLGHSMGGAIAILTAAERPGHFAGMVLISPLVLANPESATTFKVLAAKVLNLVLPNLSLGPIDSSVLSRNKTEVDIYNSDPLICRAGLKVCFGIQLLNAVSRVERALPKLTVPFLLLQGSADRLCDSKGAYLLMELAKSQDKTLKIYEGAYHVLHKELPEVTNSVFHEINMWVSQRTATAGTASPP
Chain of human recombinant FAAH (O00519 whole entry): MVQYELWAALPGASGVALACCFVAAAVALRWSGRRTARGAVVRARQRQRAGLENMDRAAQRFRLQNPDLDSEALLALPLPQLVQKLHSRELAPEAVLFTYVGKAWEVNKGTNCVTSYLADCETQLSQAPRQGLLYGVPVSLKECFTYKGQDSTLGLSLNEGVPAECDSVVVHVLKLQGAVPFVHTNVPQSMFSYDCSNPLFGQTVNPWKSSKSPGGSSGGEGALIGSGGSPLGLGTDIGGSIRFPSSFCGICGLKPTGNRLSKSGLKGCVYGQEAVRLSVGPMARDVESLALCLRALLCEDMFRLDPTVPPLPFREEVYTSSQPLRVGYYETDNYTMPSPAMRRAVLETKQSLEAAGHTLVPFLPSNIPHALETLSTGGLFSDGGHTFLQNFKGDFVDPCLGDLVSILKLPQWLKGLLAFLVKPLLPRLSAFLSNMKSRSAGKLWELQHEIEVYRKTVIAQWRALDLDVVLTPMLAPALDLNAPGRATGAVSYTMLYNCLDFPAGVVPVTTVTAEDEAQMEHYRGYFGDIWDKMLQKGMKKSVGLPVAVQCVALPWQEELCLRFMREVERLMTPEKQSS

In the case of `O=C(c1cc(O)ccc1F)N1CC2(CC(n3cc(C(F)(F)F)c(-c4ccccc4F)n3)C2)C1` [Compound 473, (2-fluoro-5-hydroxyphenyl) {6-[3-(o-fluorophenyl)-4-(trifluoromethyl)-1-pyrazolyl]-2-aza-2-spiro[3.3]heptyl}methanone], in data set [1], the “A: degree to which MAGL enzymatic activity returned following washout” value stood at 41. For the same compound, the “Mean 2AG Concentration in Brain” value in data set [2] was 17.38 nmol/g. In data set [3], the AUClast came out at 464.42 ng·h/mL and the Cmax – broadly, the highest concentration seen after dosing – turned out to be 171.59 ng/g. For the same compound, in data set [4], the 50% inhibitory concentration (IC50) (as a rule, the midpoint of a concentration-inhibition curve) was more than 10 µM. The Kp at 0.5 h in data set [5] was 1.44.
